System: 292921-168-R-J2-PDC complex spheroid growth
Assay: Anticancer human tumor 292921-168-R-J2-PDC patient-derived pancreatic carcinoma cell line growth inhibition [AhR]
Conditions: for viability, T/C: stronger effect = lower value
Summary of the method: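 Spheroids combined tumor cells with HUVEC endothelial cells and human MSCs as stroma. AhR antagonists were paired with standard or investigational drugs, each dosed in half-log steps down from near clinical Cmax, or from 10 microM where Cmax was unknown.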

[1] = curve of first compound, second compound 0.1 µM
[2] = curve of first compound, second compound 0.316 µM
[3] = curve of first compound, second compound 1 µM
[4] = curve of first compound, second compound 3.16 µM
[5] = curve of first compound, second compound 10 µM
[6] = second compound 0.1 µM, first compound 0.0316 µM
[7] = second compound 0.1 µM, first compound 0.1 µM
[8] = second compound 0.1 µM, first compound 0.316 µM
[9] = second compound 0.1 µM, first compound 1 µM
[10] = second compound 0.1 µM, first compound 3.16 µM
[11] = second compound 0.1 µM, first compound 10 µM
[12] = second compound 0.316 µM, first compound 0.0316 µM
[13] = second compound 0.316 µM, first compound 0.1 µM
[14] = second compound 0.316 µM, first compound 0.316 µM
[15] = second compound 0.316 µM, first compound 1 µM
[16] = second compound 0.316 µM, first compound 3.16 µM
[17] = second compound 0.316 µM, first compound 10 µM
[18] = second compound 1 µM, first compound 0.0316 µM
[19] = second compound 1 µM, first compound 0.1 µM
[20] = second compound 1 µM, first compound 0.316 µM
[21] = second compound 1 µM, first compound 1 µM
[22] = second compound 1 µM, first compound 3.16 µM
[23] = second compound 1 µM, first compound 10 µM
[24] = second compound 3.16 µM, first compound 0.0316 µM
[25] = second compound 3.16 µM, first compound 0.1 µM
[26] = second compound 3.16 µM, first compound 0.316 µM
[27] = second compound 3.16 µM, first compound 1 µM
[28] = second compound 3.16 µM, first compound 3.16 µM
[29] = second compound 3.16 µM, first compound 10 µM
[30] = second compound 10 µM, first compound 0.0316 µM
[31] = second compound 10 µM, first compound 0.1 µM
[32] = second compound 10 µM, first compound 0.316 µM
[33] = second compound 10 µM, first compound 1 µM
[34] = second compound 10 µM, first compound 3.16 µM
[35] = second compound 10 µM, first compound 10 µM
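Further: spheroids exposed to compounds for seven days after three days of growth.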

COc1ccc([C@@H](O)c2cc(-c3ncnc4cc(N5CCOCC5)ccc34)c(F)cc2Cl)nn1 + Cc1ccccc1N=Nc1ccc(NC(=O)c2ccnn2C)c(C)c1
IC50 [1]: 1950 nM
IC50 [2]: 1930 nM
IC50 [3]: 1650 nM
IC50 [4]: 1320 nM
IC50 [5]: 529 nM
viability, T/C [6]: 89.1%
viability, T/C [7]: 81.5%
viability, T/C [8]: 81%
viability, T/C [9]: 56.2%
viability, T/C [10]: 44.9%
viability, T/C [11]: 27%
viability, T/C [12]: 90%
viability, T/C [13]: 80.9%
viability, T/C [14]: 79.2%
viability, T/C [15]: 59.7%
viability, T/C [16]: 42.1%
viability, T/C [17]: 24%
viability, T/C [18]: 76.5%
viability, T/C [19]: 81.6%
viability, T/C [20]: 71.6%
viability, T/C [21]: 55.8%
viability, T/C [22]: 41%
viability, T/C [23]: 22.4%
viability, T/C [24]: 70.7%
viability, T/C [25]: 68%
viability, T/C [26]: 66.6%
viability, T/C [27]: 52%
viability, T/C [28]: 38.5%
viability, T/C [29]: 21%
viability, T/C [30]: 57.4%
viability, T/C [31]: 54.6%
viability, T/C [32]: 53.7%
viability, T/C [33]: 46.8%
viability, T/C [34]: 34.9%
viability, T/C [35]: 20.4%

Cc1ccccc1N=Nc1ccc(NC(=O)c2ccnn2C)c(C)c1
viability, T/C (compound 0.1 µM): 91.3% [middle of 19 runs]
viability, T/C (compound 0.316 µM): 85.6% [middle of 20 runs]
viability, T/C (compound 1 µM): 82.1% [middle of 20 runs]
viability, T/C (compound 10 µM): 62.7% [middle of 21 runs]
IC50 (compound alone, run of 06/14/2022): > 10000 nM

CC1(C)CCC(CN2CCN(c3ccc(C(=O)NS(=O)(=O)c4ccc(NCC5CCOCC5)c([N+](=O)[O-])c4)c(Oc4cnc5[nH]ccc5c4)c3)CC2)=C(c2ccc(Cl)cc2)C1 + Cc1ccccc1N=Nc1ccc(NC(=O)c2ccnn2C)c(C)c1
IC50 [1]: 6350 nM
IC50 [2]: 6290 nM
IC50 [3]: 6070 nM
IC50 [4]: 5510 nM
IC50 [5]: 4730 nM
viability, T/C [6]: 91.2%
viability, T/C [7]: 90.5%
viability, T/C [8]: 109%
viability, T/C [9]: 103%
viability, T/C [10]: 112%
viability, T/C [11]: 16.8%
viability, T/C [12]: 88.3%
viability, T/C [13]: 89.3%
viability, T/C [14]: 97.4%
viability, T/C [15]: 96%
viability, T/C [16]: 108%
viability, T/C [17]: 19%
viability, T/C [18]: 96.8%
viability, T/C [19]: 101%
viability, T/C [20]: 77.8%
viability, T/C [21]: 95.1%
viability, T/C [22]: 100%
viability, T/C [23]: 16.2%
viability, T/C [24]: 79.8%
viability, T/C [25]: 77.3%
viability, T/C [26]: 75.3%
viability, T/C [27]: 84%
viability, T/C [28]: 96.4%
viability, T/C [29]: 15.1%
viability, T/C [30]: 65.4%
viability, T/C [31]: 63.5%
viability, T/C [32]: 53.9%
viability, T/C [33]: 72.5%
viability, T/C [34]: 77.6%
viability, T/C [35]: 19.3%

CC1COCCN1c1cc(C2(S(C)(=N)=O)CC2)nc(-c2ccnc3[nH]ccc23)n1 (stereo not given) + Cc1ccccc1N=Nc1ccc(NC(=O)c2ccnn2C)c(C)c1
IC50 [1]: 2760 nM
IC50 [2]: 2520 nM
IC50 [3]: 2080 nM
IC50 [4]: 1810 nM
IC50 [5]: 1480 nM
viability, T/C [6]: 89.7%
viability, T/C [7]: 96%
viability, T/C [8]: 93.9%
viability, T/C [9]: 83.1%
viability, T/C [10]: 45.6%
viability, T/C [11]: 21%
viability, T/C [12]: 98.8%
viability, T/C [13]: 84.3%
viability, T/C [14]: 88.3%
viability, T/C [15]: 79.5%
viability, T/C [16]: 42.6%
viability, T/C [17]: 24.4%
viability, T/C [18]: 86.4%
viability, T/C [19]: 83.7%
viability, T/C [20]: 85.4%
viability, T/C [21]: 69.8%
viability, T/C [22]: 38.6%
viability, T/C [23]: 19.2%
viability, T/C [24]: 80%
viability, T/C [25]: 78.8%
viability, T/C [26]: 68%
viability, T/C [27]: 65.6%
viability, T/C [28]: 37.4%
viability, T/C [29]: 16.7%
viability, T/C [30]: 66.9%
viability, T/C [31]: 55.7%
viability, T/C [32]: 58.2%
viability, T/C [33]: 58.3%
viability, T/C [34]: 34.3%
viability, T/C [35]: 21.5%

Nc1ncn(C2CC(O)C(CO)S2)c(=O)n1 (stereo not given) + Cc1ccccc1N=Nc1ccc(NC(=O)c2ccnn2C)c(C)c1
IC50 [1]: > 300 nM
IC50 [2]: > 300 nM
IC50 [3]: > 300 nM
IC50 [4]: > 300 nM
IC50 [5]: > 300 nM
viability, T/C (second compound 0.1 µM, first compound 0.000949 µM): 96.1%
viability, T/C (second compound 0.1 µM, first compound 0.003 µM): 91.2%
viability, T/C (second compound 0.1 µM, first compound 0.00949 µM): 86.3%
viability, T/C (second compound 0.1 µM, first compound 0.03 µM): 93%
viability, T/C (second compound 0.1 µM, first compound 0.0949 µM): 91.1%
viability, T/C (second compound 0.1 µM, first compound 0.3 µM): 77.5%
viability, T/C (second compound 0.316 µM, first compound 0.000949 µM): 87.6%
viability, T/C (second compound 0.316 µM, first compound 0.003 µM): 92.3%
viability, T/C (second compound 0.316 µM, first compound 0.00949 µM): 93.3%
viability, T/C (second compound 0.316 µM, first compound 0.03 µM): 81.5%
viability, T/C (second compound 0.316 µM, first compound 0.0949 µM): 82.6%
viability, T/C (second compound 0.316 µM, first compound 0.3 µM): 76.6%
viability, T/C (second compound 1 µM, first compound 0.000949 µM): 83.6%
viability, T/C (second compound 1 µM, first compound 0.003 µM): 85%
viability, T/C (second compound 1 µM, first compound 0.00949 µM): 80.7%
viability, T/C (second compound 1 µM, first compound 0.03 µM): 83.8%
viability, T/C (second compound 1 µM, first compound 0.0949 µM): 90%
viability, T/C (second compound 1 µM, first compound 0.3 µM): 78.5%
viability, T/C (second compound 3.16 µM, first compound 0.000949 µM): 68.6%
viability, T/C (second compound 3.16 µM, first compound 0.003 µM): 66.1%
viability, T/C (second compound 3.16 µM, first compound 0.00949 µM): 72.4%
viability, T/C (second compound 3.16 µM, first compound 0.03 µM): 79.9%
viability, T/C (second compound 3.16 µM, first compound 0.0949 µM): 82.2%
viability, T/C (second compound 3.16 µM, first compound 0.3 µM): 64.1%
viability, T/C (second compound 10 µM, first compound 0.000949 µM): 64%
viability, T/C (second compound 10 µM, first compound 0.003 µM): 56.1%
viability, T/C (second compound 10 µM, first compound 0.00949 µM): 59%
viability, T/C (second compound 10 µM, first compound 0.03 µM): 62.7%
viability, T/C (second compound 10 µM, first compound 0.0949 µM): 61.6%
viability, T/C (second compound 10 µM, first compound 0.3 µM): 57.1%
